{"source": "patent US8163921B2", "about": "“Hepatitis C virus inhibitors” (Bristol-Myers Squibb Company, priority 2008, dated 2012)", "key": {"[1]": {"test_system": "HCV replicon (Renilla luciferase) in HUH-7 cells", "experiment": "HCV replicon luciferase reporter assay", "type": "cell-based, HCV strain 1b", "description": "An HCV replicon whole cell system was established as described by Lohmann V, Korner F, Koch J, Herian U, Theilmann L, Bartenschlager R., Science 285(5424):110-3 (1999). This system enabled us to evaluate the effects of our HCV Protease compounds on HCV RNA replication. Briefly, using the HCV strain 1b sequence described in the Lohmann paper (Assession number:AJ238799), an HCV cDNA was synthesized by Operon Technologies, Inc. (Alameda, Calif.), and the full-length replicon was then assembled in plasmid pGem9zf(+) (Promega, Madison, Wis.) using standard molecular biology techniques. […]\nAs a secondary assay, EC50 determinations from the replicon FRET assay were confirmed in a replicon luciferase reporter assay. […] Following 4 days in a 37° C./5% CO2 incubator, cells were analyzed for Renilla Luciferase activity using the Promega Dual-Glo Luciferase Assay System. […] Plates were read on a Packard TopCount NXT using a luminescence program. The percentage inhibition was calculated using the formula below: % control=average luciferase signal in experimental wells (+compound) average luciferase signal in DMSO control wells (−compound)\nThe values were graphed and analyzed using XLfit to obtain the EC50 value."}, "[2]": {"test_system": "HCV replicon in HUH-7 cells", "experiment": "HCV replicon FRET assay", "type": "cell-based, HCV strain 1b", "conditions": "Hepatitis C virus, Huh-7; read-out: EC50 value in the replicon FRET assay"}, "[3]": {"test_system": "human pancreatic chymotrypsin", "experiment": "Specificity assay, chymotrypsin", "type": "biochemical", "conditions": "read-out: Chymotrypsin activity in the specificity assays", "experimental": "(§1) The specificities of compounds of the present disclosure were determined against a variety of serine proteases: human neutrophil elastase (HNE), porcine pancreatic elastase (PPE) and human pancreatic chymotrypsin and one cysteine protease: human liver cathepsin B. In all cases a 96-well plate format protocol using a fluorometric Amino-Methyl-Coumarin (AMC) substrate specific for each enzyme was used as described previously (PCT Patent Application No. WO 00/09543) with some modifications to the serine protease assays. All enzymes were purchased from Sigma, EMDbiosciences while the substrates were from Bachem, Sigma and EMDbiosciences.\n(§2) Compound concentrations varied from 100 to 0.4 μM depending on their potency. The enzyme assays were each initiated by addition of substrate to enzyme-inhibitor pre-incubated for 10 min at room temperature and hydrolysis to 15% conversion as measured on cytofluor.\n50 mM Tris(hydroxymethyl)aminomethane hydrochloride (Tris-HCl) pH 8, 0.5 M Sodium Sulfate (Na2SO4), 50 mM NaCl, 0.1 mM EDTA, 3% DMSO, 0.01% Tween-20 with 5 μM LLVY-AMC and 1 nM Chymotrypsin.\n(§3) The percentage of inhibition was calculated using the formula: [1−((UVinh−UVblank)/(UVctl−UVblank))]×100\n(§4) A non-linear curve fit was applied to the inhibition-concentration data, and the 50% effective concentration (IC50) was calculated by the use of Excel XLfit software."}, "[4]": {"molecular_target": "T1, porcine pancreatic elastase (PPE) (Sus scrofa, UniProt P00772)", "T1 construct": "purchased Sigma, EMDbiosciences", "T1 sequence (P00772 27-266)": "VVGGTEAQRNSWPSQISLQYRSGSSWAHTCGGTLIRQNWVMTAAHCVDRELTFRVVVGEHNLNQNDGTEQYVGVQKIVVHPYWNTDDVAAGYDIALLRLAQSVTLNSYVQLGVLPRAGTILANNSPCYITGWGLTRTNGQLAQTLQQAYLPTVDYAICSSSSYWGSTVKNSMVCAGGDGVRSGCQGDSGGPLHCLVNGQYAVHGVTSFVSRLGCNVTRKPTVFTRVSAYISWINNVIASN", "experiment": "Specificity assay, PPE", "type": "biochemical", "conditions": "read-out: PPE activity in the specificity assays", "experimental": "as §1, §2\n50 mM Tris-HCl, pH 8.0, 50 mM NaCl, 0.1 mM EDTA, 3% DMSO, 0.02% Tween-20, 5 μM succ-AAPV-AMC and 20 nM HNE or 8 nM PPE;\nas §3, §4"}}, "data": [{"smiles": "C=C[C@@H]1C[C@]1(NC(=O)[C@@H]1C[C@@H](Oc2ncc(OC)c3ccc(Cl)cc23)CN1C(=O)[C@@H](Nc1nc(-c2cccc(OC(F)(F)F)c2)cs1)C(C)(C)C)C(=O)NS(=O)(=O)C1CC1", "note": "[Example 68]", "values": [{"measurement": "EC50", "setting": "[1]", "value": 2, "unit": "nM"}, {"measurement": "EC50", "setting": "[2]", "value": 5.7, "unit": "nM"}, {"measurement": "IC50", "setting": "[3]", "value": 3000, "unit": "nM"}, {"measurement": "IC50", "setting": "[4]", "value": "> 50000", "unit": "nM"}]}]}
